Assay results as given in the COVID Moonshot data (paper PMC11187573), “Identification of SARS-CoV-2 Mpro inhibitors through deep reinforcement learning for de novo drug design and computational chemistry approaches” (RSC Medicinal Chemistry, 2024).
pIC50: −log10 of the molar value.

Legend:
[1] = target: SARS-CoV-2 Main Protease (SARS-CoV-2) (UniProt P0DTD1); settings: for inhibition: 50.0 µM
[2] = target: SARS-CoV-2 Main Protease (SARS-CoV-2) (UniProt P0DTD1)

Row | Structure (SMILES) | inhibition ([2]; 20.0 µM) | inhibition ([2]; 50.0 µM) | other results
1 | Cc1ccncc1NC(=O)Cc1cc(C#N)cc(OC2CC(=O)N2)c1 (configuration not stated) |  |  | pIC50 [1]: 5.06
2 | Cn1c(C(NC(=O)Cc2cc3ccccc3[nH]2)c2cccc(Cl)c2)nc2ccccc21 (configuration not stated) |  |  | pIC50 [1]: 4.50
3 | COc1ccc2c(N)nn(C(=O)C3CCOc4ccc(Cl)cc43)c2c1 (configuration not stated) |  |  | pIC50 [1]: 4.21
4 | Cc1ccncc1NC(=O)Cc1cc(Cl)cc(-c2cnn(C)c2C(F)F)c1 |  |  | pIC50 [1]: 4.80
5 | CCC(=O)Nc1ccc(N(Cc2cscn2)C(=O)Cn2nnc3ccccc32)cc1 |  |  | pIC50 [1]: 4.34
6 | Nc1nn(C(=O)Cc2cccc(Cl)c2)c2ccc(F)cc12 |  |  | pIC50 [1]: 4.03
7 | Cc1nc(CN2C(=O)C(=O)c3cc(Br)ccc32)cs1 |  |  | pIC50 [1]: 4.74
8 | O=C1CC(C(=O)Nc2cncc3ccccc23)c2cc(Br)ccc2N1 (configuration not stated) |  |  | pIC50 [1]: 5.95
9 | COc1cccc2[nH]c(=O)cc(C(=O)N3CCN(c4cccc(Cl)c4)CC3)c12 |  |  | pIC50 [1]: 5.73
10 | O=c1c(O)c(-c2cc(OCc3ccccc3)ccc2OCc2ccccc2)oc2ccccc12 |  |  | inhibition [1]: 0.254%
11 | CCCCN1C(=O)C(=O)c2cc(Br)cc(C)c21 |  |  | pIC50 [1]: 4.24
12 | O=C(Cc1cccc(Cl)c1)Nc1cncc2nc[nH]c12 |  |  | pIC50 [1]: 5.10; inhibition [1]: 79.5%
13 | COC(=O)C(C(=O)Nc1cnccc1C)c1cccc(Cl)c1 (configuration not stated) |  |  | pIC50 [1]: 4.77
14 | COc1ncc(Br)cc1Nc1cc(Cl)cc(CC(=O)Nc2cncc3ccccc23)c1 |  |  | pIC50 [2]: 6.17
15 | O=C(Nc1cncc2ccccc12)[C@H]1COc2ccc(Cl)cc21 (stereo in doubt) |  |  | pIC50 [2]: 4.57
16 | CCCCN(CCNC(=O)Nc1cn(C)c(=O)c2ccccc12)Cc1ccco1 | 6.22% | 12.5% | 
17 | COc1ccc(NC(=O)c2ccc(C(=N)N(C)C)cc2)c(C(=O)Nc2ccc(Cl)cn2)c1 | -17.3% | -3.35% | 
18 | COc1ccc(N2C(=O)CCS2(=O)=O)cc1S(=O)(=O)Nc1cccc2cccnc12 | 65.3% | 37.4% | 
19 | O=C(O)CNC(=O)c1ncc(-c2cccc(Cl)c2)cc1O | 1.43% | -1.75% | 
20 | COc1ccc(OC)c(CNC(=O)Nc2cn(CC(C)C)c(=O)c3ccccc23)c1 | 18.5% | 0.63% | 
21 | O=C1C(Nc2ncnc3[nH]cnc23)CCN1Cc1ccccc1 (configuration not stated) | -6.26% | -5.36% | 

Row | Structure (SMILES) | inhibition ([2]; 20.0 µM) | inhibition ([2]; 50.0 µM) | other results
22 | CC(NC(=O)Cc1ccc(-n2cnnn2)cc1)(C(=O)Nc1cncc2ccccc12)c1ccc(Cl)c(Cl)c1 (configuration not stated) |  |  | pIC50 [2]: 5.33
23 | Cc1ccn2cnnc2c1NC(=O)C1CCOc2ccccc21 (configuration not stated) | -11.2% | -4.74% | 
24 | CC1CN(C)CCN1C(=O)CC1(C(=O)Nc2cncc3ccccc23)CCOc2ccc(Cl)cc21 (configuration not stated) |  |  | pIC50 [2]: 5.21
25 | Nc1cc(C(F)(F)F)c(-c2nc(N3CCOCC3)nc(N3CCOCC3)n2)cn1 | 5.19% | 5.97% | 
26 | CC(C)Cn1cc(NC(=O)Nc2nc3ccccc3s2)c2ccccc2c1=O | 3.79% | 12.2% | 
27 | CC(=O)c1cccc(NC(=O)Nc2cn(C)c(=O)c3ccccc23)c1 | 22.4% | 11.9% | 
28 | COc1cccc2[nH]c(=O)cc(C(=O)NCCOc3ccccc3OCC3CC3)c12 |  |  | pIC50 [2]: 5.72
29 | O=C(Nc1c[nH]nc1-c1ccccn1)c1cccc2nccn12 | 2.59% | 9.01% | 
30 | Cn1cc(NC(=O)NCCc2ccsc2)c2ccccc2c1=O | 14.5% | 8.36% | 
31 | COC[C@]1(C(=O)Nc2cncc3ccccc23)CCOc2cc(Cl)c(Cl)cc21 (stereo in doubt) |  |  | pIC50 [2]: 5.49
32 | Cc1ccc(NC(=O)Nc2cn(CC(C)C)c(=O)c3ccccc23)c(Br)c1 | 8.16% | 9.66% | 
33 | C[C@@H](Cn1ccc(-c2ccc(C#N)c(Cl)c2)n1)NC(=O)c1cc([C@@H](C)O)[nH]n1 (stereo in doubt) | 3.16% | -11.9% | 
34 | O=C(Nc1cnn2ccc(N3CCC[C@@H]3c3cc(F)ccc3F)nc12)N1CC[C@H](O)C1 (stereo in doubt) | -17.2% | -4.24% | 
35 | Cn1cc(NC(=O)Nc2cccc(C(F)(F)F)c2)c2ccccc2c1=O | -2.91% | 0.168% | 
36 | O=C1CC(C(=O)Nc2cncc3ccccc23)c2cc(Cl)cc(Cl)c2N1 (configuration not stated) |  |  | pIC50 [2]: 5.52
37 | COc1cc2c(cc1OC)C(C)N(C(=O)Nc1cn(C)c(=O)c3ccccc13)CC2 (configuration not stated) | 51.2% | 5.23% | 
38 | CC(C)Cn1cc(NC(=O)NCCCN2CCCC2=O)c2ccccc2c1=O | -2.54% | 3.77% | 
39 | CC(NC(=O)c1cc2n(n1)CCO2)(C(=O)Nc1cncc2ccccc12)c1ccc(Cl)c(Cl)c1 (configuration not stated) |  |  | pIC50 [2]: 5.07
40 | CC(C)N(C(=O)Cc1c(O)c2ccccc2[nH]c1=O)C(C)C | -0.198% | -0.251% | 
41 | Cn1ccc(CN(C(=O)Cc2cccnc2)c2ccc(-c3ccccn3)cc2)n1 | 6.62% | 16.1% | 
